Experimental findings from patent US10329289B2, “6,7-dihydro-5H-pyrrolo[3,4-B]pyridin-5-one allosteric modulators of the M4 muscarinic acetylcholine receptor” (Merck Sharp & Dohme Corp., priority 2015, dated 2019) are described below.

The target of the test is T1, human M4 muscarinic acetylcholine receptor (Homo sapiens, UniProt P08173).
T1 construct: expressed in transfected cells; host or cells: CHO-K1
T1 sequence (P08173 1-479): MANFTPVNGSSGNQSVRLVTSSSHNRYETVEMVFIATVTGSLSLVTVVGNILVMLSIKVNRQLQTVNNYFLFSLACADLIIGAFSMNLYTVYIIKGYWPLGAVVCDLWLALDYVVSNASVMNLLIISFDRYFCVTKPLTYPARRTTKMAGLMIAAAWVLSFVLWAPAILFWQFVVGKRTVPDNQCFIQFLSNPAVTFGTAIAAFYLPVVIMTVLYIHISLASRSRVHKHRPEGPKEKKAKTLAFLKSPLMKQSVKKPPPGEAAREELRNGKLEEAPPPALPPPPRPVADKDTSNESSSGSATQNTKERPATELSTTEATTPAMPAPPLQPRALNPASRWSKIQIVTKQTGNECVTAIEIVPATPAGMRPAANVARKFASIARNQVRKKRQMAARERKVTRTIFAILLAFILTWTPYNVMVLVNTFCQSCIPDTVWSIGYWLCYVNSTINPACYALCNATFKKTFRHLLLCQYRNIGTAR
Briefly: human FLIPR-based M4 PAM assay (Ca2+ mobilization, CHO-K1 cells with human M4 receptor and Gαqi5). The class given is cell-based. The settings on record: acetylcholine at 20% of maximum response, read-out: M4 PAM IP. In short, it runs like this:
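Calcium-mobilization (FLIPR) readout in dye-loaded CHO-K1 cells co-expressing human M4 receptor and Gαqi5. Potentiation measured against acetylcholine at a concentration giving 20% of maximal response, with an optional 70% addition; the reported value is the curve inflection point from a 4-parameter logistic fit.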
(In general: Calcium assays in cells follow changes in intracellular calcium, usually with a dye or a luminescent sensor.)
Take `Cc1c(N2CCC(OCC3(C)CC3)CC2)nc2c(c1C)C(=O)NC2` [Example 219, 3,4-dimethyl-2-(4-((1-methylcyclopropyl)methoxy)piperidin-1-yl)-6,7-dihydro-5H-pyrrolo[3,4-b]pyridin-5-one]: the EC50 came to 25 nM.
For `Cc1c(N2CCC(Oc3cccc(C#N)c3)CC2)nc2c(c1C)C(=O)NC2` [Example 94A, 3-((1-(3,4-dimethyl-5-oxo-6,7-dihydro-5H-pyrrolo[3,4-b]pyridin-2-yl)piperidin-4-yl)oxy)benzonitrile] the value was 193 nM; for `Cc1cc2c(nc1N1CCC(Oc3ccc(OC4CCC4)nc3)CC1)CNC2=O` [Example 37, 2-(4-((6-cyclobutoxypyridin-3-yl)oxy)piperidin-1-yl)-3-methyl-6,7-dihydro-5H-pyrrolo[3,4-b]pyridin-5-one], 172 nM.
On to `Cc1cc2c(nc1N1CC[C@@H](Oc3ccc4c(c3)COC4)[C@@H](F)C1)[C@@H](CO)N(C)C2=O` [Example 278, (S)-2-((3S,4R)-4-((1,3-dihydro-2-benzofuran-5-yl)oxy)-3-fluoropiperidin-1-yl)-7-(hydroxymethyl)-3,6-dimethyl-6,7-dihydro-5H-pyrrolo[3,4-b]pyridin-5-one], for which the EC50 turned out to be 19 nM.
For `Cc1cc2c(nc1N1CC[C@@H](Oc3cccc(C#N)c3)[C@@H](F)C1)CN(C)C2=O` [Example 45, 3-(((3S,4R)-1-(3,6-dimethyl-5-oxo-6,7-dihydro-5H-pyrrolo[3,4-b]pyridin-2-yl)-3-fluoropiperidin-4-yl)oxy)benzonitrile] the value was 53 nM; for `Cc1c(N2CC[C@@H](OCC3(C)CC3)[C@H](F)C2)nc2c(c1C)C(=O)NC2` [Example 174A, 2-((3R,4R)-3-fluoro-4-((1-methylcyclopropyl)meth-oxy)piperidin-1-yl)-3,4-dimethyl-6,7-dihydro-5H-pyrrolo[3,4-b]pyridin-5-one], 22 nM.
Regarding `Cc1cc2c(nc1N1CCC(Oc3ccc4c(c3)COC4)CC1)CN(C)C2=O` [Example 38, 2-(4-((1,3-dihydro-2-benzofuran-5-yl)oxy)piperidin-1-yl)-3,6-dimethyl-6,7-dihydro-5H-pyrrolo[3,4-b]pyridin-5-one], the EC50 is 30 nM.
`COCCOCc1ccc(OC2CCN(c3nc4c(cc3C)C(=O)NC4)CC2)cc1` [Example 205, 2-(4-(4-((2-methoxyethoxy)methyl)phenoxy)piperidin-1-yl)-3-methyl-6,7-dihydro-5H-pyrrolo[3,4-b]pyridin-5-one]: the EC50 is 238 nM.
Then `COc1ccc(O[C@H]2CCN(c3nc4c(cc3C)C(=O)NC4)C[C@@H]2C)cn1` (single isomer, unassigned) [Example 2B], with 734 nM.
For `Cc1ccc(OC2CCN(c3nc4c(cc3C)C(=O)NC4)CC2)cc1F` [Example 134, 2-(4-(3-fluoro-4-methylphenoxy)piperidin-1-yl)-3-methyl-6,7-dihydro-5H-pyrrolo[3,4-b]pyridin-5-one] the value was 167 nM; for `Cc1c(N2CCC(Oc3cnn(C)c3)CC2)nc2c(c1C)C(=O)NC2` [Example 331, 3,4-dimethyl-2-(4-((1-methyl-1H-pyrazol-4-yl)oxy)piperidin-1-yl)-6,7-dihydro-5H-pyrrolo[3,4-b]pyridin-5-one], 33 nM.
As to `Cc1cc2c(nc1N1CC[C@@H](Oc3ccc(F)cc3)[C@@H](F)C1)CNC2=O` [Example 196, 2-((3S,4R)-3-fluoro-4-(4-fluorophenoxy)piperidin-1-yl)-3-methyl-6,7-dihydro-5H-pyrrolo[3,4-b]pyridin-5-one], the EC50 stood at 22 nM.
Then `Cc1cc2c(nc1N1CCC(Oc3ccc4[nH]nc(Br)c4c3)CC1)CNC2=O` [Example 315, 2-(4-((3-bromo-1H-indazol-5-yl)oxy)piperidin-1-yl)-3-methyl-6,7-dihydro-5H-pyrrolo[3,4-b]pyridin-5-one], with 80 nM; and `Cc1cc2c(nc1N1CCC(Oc3cccc(C#N)c3)CC1)CN(C1CC1)C2=O` [Example 249, 3-((1-(6-cyclopropyl-3-methyl-5-oxo-6,7-dihydro-5H-pyrrolo[3,4-b]pyridin-2-yl)piperidin-4-yl)oxy)benzonitrile], with 32 nM; and `Cc1cc2c(nc1N1CC[C@@H](Oc3cccc4c3COC4)[C@@H](F)C1)CNC2=O` [Example 39, 2-((3S,4R)-4-((1,3-dihydro-2-benzofuran-4-yl)oxy)-3-fluoropiperidin-1-yl)-3-methyl-6,7-dihydro-5H-pyrrolo[3,4-b]pyridin-5-one], with 1600 nM.
Then `Cc1c(N2CCC(OC[C@]3(C)CC3(F)F)CC2)nc2c(c1C)C(=O)N(CCO)C2` [Example 265C, (S)-2-(4-((2,2-difluoro-1-methylcyclopropyl)methoxy)piperidin-1-yl)-6-(2-hydroxyethyl)-3,4-dimethyl-6,7-dihydro-5H-pyrrolo[3,4-b]pyridin-5-one], with 41 nM; and `Cc1cc2c(nc1N1CCC(Oc3ccc4c(cnn4C)c3)CC1)CN(C)C2=O` [Example 32, 3,6-dimethyl-2-(4-((l-methyl-1H-indazol-5-yl)oxy)piperidin-1-yl)-6,7-dihydro-5H-pyrrolo[3,4-b]pyridin-5-one], with 37 nM; and `Cc1cc2c(nc1N1CCC(Oc3cccc(Cl)c3)CC1)CNC2=O` [Example 74, 2-(4-(3-chlorophenoxy)piperidin-1-yl)-3-methyl-6,7-dihydro-5H-pyrrolo[3,4-b]pyridin-5-one], with 46 nM.
With `CCOc1ccc(OC2CCN(c3nc4c(cc3C)C(=O)N[C@@H]4CCO)CC2)cn1` (single isomer, unassigned) [Example 234B], the EC50 came to 78 nM.
For the molecule `Cc1cc2c(nc1N1CC[C@@H](Oc3ccc4c(c3)CCOC4)[C@@H](F)C1)CNC2=O` [Example 178A, 2-((3S,4R)-3-fluoro-4-(isochroman-6-yloxy)piperidin-1-yl)-3-methyl-6,7-dihydro-5H-pyrrolo[3,4-b]pyridin-5-one], the EC50 came out at 18 nM.
Then `COc1ccc(O[C@@H]2C[C@H]3CC[C@@H](C2)N3c2nc3c(cc2C)C(=O)NC3)cn1` [Example 99, 2-(exo-3-((6-methoxypyridin-3-yl)oxy)-8-azabicyclo[3.2.1]octan-8-yl)-3-methyl-6,7-dihydro-5H-pyrrolo[3,4-b]pyridin-5-one], with 735 nM; and `C=Cc1c(C)c(N2CCC(Oc3ccc(OC)nc3)CC2)nc2c1C(=O)NC2` [Example 372, 2-(4-((6-Methoxypyridin-3-yl)oxy)piperidin-1-yl)-3-methyl-4-vinyl-6,7-dihydro-5H-pyrrolo[3,4-b]pyridin-5-one], with 634 nM.
Then `Cc1cc2c(nc1N1CCC(Oc3ccc4c(c3)CN(C)CC4)CC1)CNC2=O` [Example 292, 3-methyl-2-(4-((2-methyl-1,2,3,4-tetrahydroisoquinolin-7-yl)oxy)piperidin-1-yl)-6,7-dihydro-5H-pyrrolo[3,4-b]pyridin-5-one], with 174 nM; and `Cc1cc2c(nc1N1CCC(Oc3ccc(OCC(C)(C)N)nc3)CC1)CNC2=O` [Example 169, 2-(4-((6-(2-amino-2-methylpropoxy)pyridin-3-yl)oxy)piperidin-1-yl)-3-methyl-6,7-dihydro-5H-pyrrolo[3,4-b]pyridin-5-one], with 183 nM; and `Cc1cc2c(nc1N1[C@@H]3CC[C@H]1C[C@H](Oc1ccc4c(cnn4C)c1)C3)CNC2=O` [Example 98, 3-methyl-2-(exo-3-((1-methyl-1H-indazol-5-yl)oxy)-8-azabicyclo[3.2.1]octan-8-yl)-6,7-dihydro-5H-pyrrolo[3,4-b]pyridin-5-one], with 522 nM.
As for `Cc1cc2c(nc1N1CCC(OCc3cnn(C)c3)CC1)CNC2=O` [Example 190A, 3-methyl-2-(4-((1-methyl-1H-pyrazol-4-yl)methoxy)piperidin-1-yl)-6,7-dihydro-5H-pyrrolo[3,4-b]pyridin-5-one], the EC50 amounted to 820 nM.
For `Cc1cc2c(nc1N1CCC(Oc3ccc4ncoc4c3)CC1)CNC2=O` [Example 89, 2-(4-(benzo[d]oxazol-6-yloxy)piperidin-1-yl)-3-methyl-6,7-dihydro-5H-pyrrolo[3,4-b]pyridin-5-one] the value was 83 nM; for `Cc1cc2c(nc1N1CCC(Oc3ccc4c(c3)c(C)nn4C)CC1)CNC2=O` [Example 129, 2-(4-((1,3-dimethyl-1H-indazol-5-yl)oxy)piperidin-1-yl)-3-methyl-6,7-dihydro-5H-pyrrolo[3,4-b]pyridin-5-one], 1090 nM; for `Cc1c(N2CCC(Oc3ccc4c(c3)COCC4)CC2)nc2c(c1C)C(=O)N(C)[C@H]2CO` (single isomer, unassigned) [Example 337D], 613 nM.
Then `CO[C@@H]1Cc2ccc(OC3CCN(c4nc5c(c(C)c4C)C(=O)N(CCO)C5)CC3)cc2C1` [Example 267C, (R)-6-(2-hydroxyethyl)-2-(4-((2-methoxy-2,3-dihydro-1H-inden-5-yl)oxy)piperidin-1-yl)-3,4-dimethyl-6,7-dihydro-5H-pyrrolo[3,4-b]pyridin-5-one], with 109 nM.
For `Cc1cc2c(nc1N1CCC(Oc3ccc4c(c3)CNC4)CC1)CNC2=O` [Example 147, 2-(4-(isoindolin-5-yloxy)piperidin-1-yl)-3-methyl-6,7-dihydro-5H-pyrrolo[3,4-b]pyridin-5-one] the value was 313 nM.
